Assay results taken from patent US11793746B2, “Intense skin hydration systems and methods” (priority 2020, dated 2023).

Columns and labels:
[1] = system: human skin analog, Skin^2; experiment: MTT cytotoxicity assay; assay type: cell-based; details: cytotoxic = levels below 80% of untreated control
Excerpt: Preclinical studies used a three-dimensional metabolically and mitotically active in vitro human skin analog, Skin^2™. This human skin substrate consists of neonatal foreskin fibroblasts that secrete a functionally active extracellular matrix grown on a medical-grade nylon mesh cocultured with human neonatal foreskin keratinocytes that differentiate into a multilayered epidermis.
This Example tested cellular viability and measured cell respiration in vitro in response to the application of GC-100 preparations.
The toxicity of a substance can be quantified by sustained metabolic activity of the cell in the presence of test substance. The integrity of cellular metabolism can be evaluated using the MTT Coloration Assay, which relies on the metabolism of 3-[4,5-dimethylthiazol-2-yl]-2,5-diphenyl tetrazolium bromide by succinate dehydrogenase of the citric acid cycle. Since the metabolism of MTT is dependent on mitochondrial activity, the amount of metabolite produced can be correlated with the number of viable cells present per well. The metabolite concentration is measured via spectrophotometry, with the absorption value converted to an absolute number that describes cellular growth.

[2] = Radial forearm free-flap, trophic effect; assay type: in vivo
[3] = system: collagen I and III synthesis; experiment: [3H]-Proline incorporation as measure of collagen deposition; assay type: cell-based, human; details: in vitro
Excerpt: This human skin substrate consists of neonatal foreskin fibroblasts that secrete a functionally active extracellular matrix grown on a medical-grade nylon mesh cocultured with human neonatal foreskin keratinocytes that differentiate into a multilayered epidermis.
Quantifying proline incorporation can be used to measure potential collagen deposition stimulated by a test substance. This concept is the foundation for the following experiments.

[4] = target: T1, tyrosinase (Mus musculus, UniProt P11344); experiment: Tyrosinase activity in B16 melanoma cells; assay type: cell-based
T1 construct: endogenous in cells; host or cells: B16 melanoma cells
T1 sequence (P11344 19-533): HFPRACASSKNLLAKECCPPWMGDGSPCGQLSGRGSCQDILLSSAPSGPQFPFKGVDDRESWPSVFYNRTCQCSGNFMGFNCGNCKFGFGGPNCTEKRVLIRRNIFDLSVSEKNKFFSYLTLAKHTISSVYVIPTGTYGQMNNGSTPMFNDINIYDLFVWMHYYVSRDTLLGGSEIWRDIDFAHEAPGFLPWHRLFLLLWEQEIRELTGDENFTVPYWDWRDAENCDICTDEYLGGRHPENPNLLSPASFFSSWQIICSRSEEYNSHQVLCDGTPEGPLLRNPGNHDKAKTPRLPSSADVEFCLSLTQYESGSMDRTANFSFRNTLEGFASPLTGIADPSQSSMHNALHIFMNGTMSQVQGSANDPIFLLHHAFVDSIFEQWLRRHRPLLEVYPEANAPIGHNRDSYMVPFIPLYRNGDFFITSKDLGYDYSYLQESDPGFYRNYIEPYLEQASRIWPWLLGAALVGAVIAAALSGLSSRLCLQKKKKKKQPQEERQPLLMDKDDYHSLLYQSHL
Description: This Example establishes and quantifies the effect of GC-100 on tyrosinase synthesis in B16 melanoma cells.
It has been reported that tyrosinase in synthesized in B16 melanoma cells within 24 hours of plating. On the basis of these reports, B16 melanoma cells were used to evaluate the inhibitory effects of GC-100 on tyrosinase synthesis. As an indication of tyrosinase synthesis, tyrosinase activity in B16 melanoma cells was measured in addition to the amount of melanin synthesized per cell.
B16 melanoma cells (5.0′×10^4) were incubated in a 96-well microplate supplemented with DMEM and 5% fetal calf serum at 37° C. for 24 hours. Incubation was continued for an additional 24 hours at 37° C. in DMEM supplemented with GC-100 at either 250 μg/mL, 500 μg/mL, or 1000 μg/mL. After washing cells with PBS twice, the cells were lysed with 50 μL of phosphate buffer (0.05 mM, pH 6.8) containing 0.1% Triton-X, and incubated at 37° C. for 30 minutes. Then 100 μL of phosphate buffer (0.1 mM, pH 6.8) containing 0.1% DOPA was added to the lysate and incubated at 37° C. for 3 hours. The resultant melanin content and protein content of the lysate were then quantified.
GC-100 selected for examination was quantitatively evaluated regarding its inhibitory activity of melanogenesis in B16 melanoma cells. B16 melanoma cells were seeded into a 60 mm diameter dish at density of 1.5′×10^5 cells/dish and incubated at 37° C. in DMEM supplemented with 10% FCS and 40 mM sodium lactate. After 4 days, the medium was exchanged to DMEM supplemented with 5% FCS and the aforementioned concentrations of GC-100 and cultured at 37° C. The results are shown in Table 5 and FIG. 11, which is a graph showing tyrosinase activity as a function of GC-100 concentration.

[5] = system: photodamaged human skin; experiment: Pilot open label study on photoaged skin: epidermal thickness by high frequency ultrasound; assay type: in vivo; details: for % change (epidermal thickness, ultrasound): range over panelists
Description: A pilot open label study was conducted to establish the efficacy of GC-100 on photoaged skin in a clinical setting.
Primary endpoints for this study were as follows: • 1. Epidermal skin thickness was measured using high frequency ultrasound. • 2. Panelists regard for their overall appearance and any changes noted in the appearance of their wrinkles, lentigines, facial acne and pore size were used in qualitative analysis. In addition, panelists were asked to comment on irritation, novel rashes, and other side effects during the study period.
An open label, six week pilot study to examiner the regenerative effect of GC-100 was performed on 15 women with mild to moderate dermatoheliosis as defined by clinical examination. Exclusion criteria selected against patients with a history of retinoic acid use, dermabrasion, or chemical peel application within 6 months prior to study onset. However, all patients had used one or more of these products previously. After appropriate informed consent was obtained, baseline measurements of epidermal thickness using high frequency untrasonography (20 MHz and above) were collected using skin at the infraorbital prominence. Three measurements were taken at each site and averaged to yield a result. GC-100 was applied to the face and neck according to the following schedule: • Weekly: GC-100 applied in mask vehicle • Twice daily: GC-100 applied through lotion vehicle
The patient population was divided into two groups, where Group I was evaluated after 24 hours of product application, and Group II was evaluated at the conclusion of weeks 2, 4 and 6. A panelist questionnaire was completed during each evaluation session.

[6] = Group I, evaluated after 24 hours of product application
[7] = Group II, evaluated at weeks 2, 4 and 6

## H-Lys-Pro-NH2 [GC-100]
[1]
  cytotoxic response (MTT): does not elicit a cytotoxic response
[2]; free flap full-thickness skin graft model, skin overlying a muscle belly
  acceleration of generalized healing: 50%
[2]; superior half of flap treated three times over 9 days from postoperative day 14
  physical examination of treated flap skin: noticeably thicker, smoother and less erythematous
[3]
  proline incorporation relative to Retin-A (retinoic acid) 0.025%: more than twice
[4]; GC-100 250 μg/mL
  Tyrosinase activity (% of untreated control): 57.3 ± 12%
[4]; GC-100 500 μg/mL
  Tyrosinase activity (% of untreated control): 34.1 ± 14%
[4]; GC-100 1000 μg/mL
  Tyrosinase activity (% of untreated control): 6.6 ± 14.8%
[5]; [6]
  Mean % (change in epidermal thickness): 8.5%
  % change (epidermal thickness, ultrasound): 3.4-19.2%
[5]; [7]
  Mean % (change in epidermal thickness): 7.95%
  % change (epidermal thickness, ultrasound): 2.9-14%
[5]; both treatment groups, high frequency ultrasound
  stratum corneum compaction spongiosis, granular cell layer thickness and epidermal thickness vs baseline: significant increase over baseline
[5]; six weeks after application
  average increase in epidermal thickness: 8%
